From publication PMC12749748, “Chemically-induced degradation of the endoplasmic-reticulum stress sensor IRE1 by a VHL-recruiting chimera” (Nature Communications, 2025)

Columns and labels:
[1] = system: panel of 220 human kinases; test: SelectScreen kinase profiling, panel of 220 kinases; format: biochemical; conditions: 1 µM, 1 h, besides IRE1
Experimental: The kinome selectivity of G6374 was assessed at 1 μM for 1 h versus a panel of 220 human kinases (SelectScreen Kinase Profiling Services, Thermo Fisher Scientific). The assays were conducted using either the Z’-LYTE technology to assess inhibition of enzyme activity ([ATP] = Km) or the TR-FRET-based LanthaScreen Eu Kinase Binding assay to assess competitive displacement of an ATP site binding probe. Assay results were normalized to positive and negative controls to determine percent inhibition. Image was created by KNIME Report Designer (KNIME.com AG, Zurich, Switzerland). Kinases for which ATP binding was inhibited by more than 90% were further examined by IB analysis for depletion by G6374 in AMO1 cells (4 h incubation).

[2] = system: kinases inhibited by 90% or more; test: Immunoblot of kinases inhibited by 90% or more, for depletion in AMO1 and KMS27 cells; format: cell-based; conditions: AMO1 and KMS27 cells, 0.1, 0.3 and 1 µM, 4 h
Experimental: Cells were lysed in buffer containing 20 mM HEPES 7.2, 150 mM NaCl, and 1% Triton X-100, supplemented with fresh protease and phosphatase inhibitors (Invitrogen, #78440), cleared by centrifugation at 12,000 × g for 10 min, and analyzed by BCA protein assay (Thermo Fisher Scientific, #23227). Equal protein amounts were loaded, separated by SDS-PAGE, electrotransferred to nitrocellulose membranes using the iBLOT2 system (Invitrogen), and blocked in 5% nonfat milk solution for 60 min. Membranes were probed with primary antibodies at 1:1000 dilution in 5% milk at 4 °C overnight. Signal was detected using appropriate horseradish peroxidase (HRP)-conjugated secondary antibodies at 1:10,000 in 5% milk at room temperature for 1–2 h. Bands were visualized by the Azure 600 western blot imaging system (Azure Biosystems). For in vitro ubiquitination assays performed with Me-Ub, bands were visualized by the Odyssey CLx Imager (LI‑COR) after incubating the blots with the IRDye 800CW (LI-COR) secondary antibodies at 1:10,000 in Intercept Blocking Buffer (LI-COR) at room temperature for 1–2 h. […]
The kinome selectivity of G6374 was assessed at 1 μM for 1 h versus a panel of 220 human kinases (SelectScreen Kinase Profiling Services, Thermo Fisher Scientific). […]

[3] = system: IRE1 L577D, V586D, A597D, L644D, L695D, E651A; test: NanoBRET with IRE1 point mutants disrupting IRE1:G6374 interactions; format: cell-based; conditions: each of L577D, HEK293T
Experimental: 8 × 10^5 293T cells per well were seeded in 6-well plates (Costar, #3516) and incubated at 37 °C, 5% CO2 for 6 h. A mixture of 0.2 µg ERN1 (IRE1)-NanoLuc Fusion Vector (Promega, NV1321), 2 µg HaloTag-VHL Fusion Vector (Promega, N2731), 6 µl FuGENE HD Transfection Reagent (Promega, E2311), and 100 µL Opti-MEM I reduced serum medium (Gibco, #31985062) per well was incubated at room temperature for 20 min before adding to cells. For expression of IRE1 mutants, site-directed mutagenesis was performed using the ERN1-NanoLuc Fusion Vector as the DNA template, and the transfection mixture was prepared in the same way as WT IRE1. After 18 h, cells from 6-well plates were trypsinized, resuspended in Opti-MEM I reduced serum medium, and reseeded into 96-well plates (Costar, #3917), with or without the addition of HaloTag NanoBRET 618 Ligand (Promega, G9801). After 18 h of incubation, a titration of G6374 (dilutions made in Opti-MEM I reduced serum medium) was added to the cells. After 2 h of G6374 treatment, NanoBRET Nano-Glo Substrate (Promega, N1571) was added to cells. The 96-well plates were imaged by GloMax Discover Microplate Reader (Promega, GM3000) with the default “BRET: NanoBRET 618” protocol (Donor: 450 BP; Acceptor: 600 LP; Integration: 0.3 s). Data analysis was performed according to the user manual.

AMO1 cells = test: Incucyte cell confluency, AMO1 cells; format: cell-based; conditions: AMO1 shIRE1 cells, titration
Experimental: For non-adherent AMO1, KMS27, and OPM2 cells, cells were plated at 5000 cells/well in ultra-low attachment (ULA) 96-well plates (Costar, #7007) and centrifuged at 600 × g for 5 min for spheroid formation. For adherent U2OS and Colo201 cells, 2000 cells/well were seeded in a clear flat-bottom 96-well plate (Costar, #3595). Treatments were added at the time of cell seeding, and cells were cultured in complete RPMI media to a final volume of 200 µL/well. Cultures were maintained at 37 °C throughout the duration of the experiment. Cell confluency was tracked using the Incucyte live-cell imaging system (Sartorius S3). Picture frames were captured every 4 h with a 4× objective, and cell confluency (%) from the total well area as a function of time was calculated using the Incucyte software (version 2023 A Rev2).

With `Cc1ncsc1-c1ccc(CNC(=O)[C@@H]2C[C@@H](O)CN2C(=O)[C@@H](NC(=O)CCCCN2CCN([C@H]3CC[C@H](Nc4ncc5ccc(=O)n(C(C)C)c5n4)CC3)CC2)C(C)(C)C)cc1` [G6374] the “number of other kinases inhibited by >90%” value [1] was 9, the “depletion of the other eight kinases (JNK3 not detectable)” value [2] was “not appreciably depleted” and the “G6374-induced IRE1:VHL interaction and IRE1 degradation with IRE1 point mutants” value [3] was “abolish the G6374-induced interaction between IRE1 and VHL”. For the same compound, the “growth inhibition (cell confluency)” value (AMO1 cells) was “concentration-dependent growth inhibition”.
